Laboratory results published in patent US8871681B2, “Herbicidal compositions comprising 4-amino-3-chloro-5-fluoro-6-(4-chloro-2-fluoro-3-methoxyphenyl) pyridine-2-carboxylic acid or a derivative thereof and certain sulfonylureas” (Dow AgroSciences LLC, priority 2012, dated 2014).

Assays:
[1] = system: MATCH (Chamomilla chamomilla, scented mayweed); assay: Post-emergence foliar-applied weed control in cereal crops, greenhouse (Example III); type: in vivo, Chamomilla chamomilla (L.) Rydb.
Description: (§1) Seeds of the desired test plant species were planted in Sun Gro MetroMix® 306 planting mixture, which typically has a pH of 6.0 to 6.8 and an organic matter content of about 30 percent, in plastic pots with a surface area of 103.2 square centimeters (cm^2). When required to ensure good germination and healthy plants, a fungicide treatment and/or other chemical or physical treatment was applied. The plants were grown for 7-36 days in a greenhouse with an approximate 14 hour photoperiod which was maintained at about 18° C. during the day and 17° C. during the night. Nutrients and water were added on a regular basis and supplemental lighting was provided with overhead metal halide 1000-Watt lamps as necessary. The plants were employed for testing when they reached the second or third true leaf stage.
(§2) Treatments consisted of the benzyl ester of 4-amino-3-chloro-5-fluoro-6-(4-chloro-2-fluoro-3-methoxy-phenyl)pyridine-2-carboxylic acid (Compound A), formulated as an SC (suspension concentrate), and a second cereal herbicide alone and in combination.
(§3) Measured aliquot of benzyl ester of 4-amino-3-chloro-5-fluoro-6-(4-chloro-2-fluoro-3-methoxy-phenyl)pyridine-2-carboxylic acid (Compound A) was placed in 25 milliliter (mL) glass vials and diluted in a volume of 1.25% (v/v) Agri-dex crop oil concentrated to obtain stock solutions. Compound requirements are based upon a 12 mL application volume at a rate of 187 liters per hectare (L/ha). Spray solutions of the second cereal herbicide and experimental compound mixtures were prepared by adding the stock solutions to the appropriate amount of dilution solution to form 12 mL spray solution with active ingredients in two- and three-way combinations. Formulated compounds were applied to the plant material with an overhead Mandel track sprayer equipped with an 8002E nozzle calibrated to deliver 187 L/ha over an application area of 0.503 square meters (m^2) at a spray height of 18 inches (46 cm) above average plant canopy. Control plants were sprayed in the same manner with the solvent blank.
(§4) The treated plants and control plants were placed in a greenhouse as described above and watered by sub-irrigation to prevent wash-off of the test compounds. After 20-22 days, the condition of the test plants as compared with that of the control plants was determined visually and scored on a scale of 0 to 100 percent where 0 corresponds to no injury and 100 corresponds to complete kill.
(§5) Colby's equation was used to determine the herbicidal effects expected from the mixtures (Colby, S. R. 1967. Calculation of the synergistic and antagonistic response of herbicide combinations. Weeds 15:20-22.).
(§6) The following equation was used to calculate the expected activity of mixtures containing two active ingredients, A and B: Expected=A+B−(A×B/100)

[2] = system: CIRAR (Cirsium arvense, Canada thistle); assay: as above; type: in vivo, Cirsium arvense (L.) Scop.; settings: foliar-applied, after 20-22 days
Description: as §1, §2, §3, §4, §5, §6

[3] = system: LEFCH (Leptochloa chinensis, Chinese sprangletop); assay: In-water applied weed control, transplanted paddy rice, greenhouse (Example II); type: in vivo, Leptochloa chinensis (L.) Nees
Description: (§7) Weed seeds or nutlets of the desired test plant species were planted in puddled soil (mud) prepared by mixing a shredded, non-sterilized mineral soil (50.5 percent silt, 25.5 percent clay, and 24 percent sand, with a pH of about 7.6 and an organic matter content of about 2.9 percent) and water at a 1:1 volumetric ratio. The prepared mud was dispensed in 365 mL aliquots into 16-ounce (oz.) non-perforated plastic pots with a surface area of 86.59 square centimeters (cm^2) leaving a headspace of 3 centimeters (cm) in each pot. Rice seeds were planted in Sun Gro MetroMix® 306 planting mixture, which typically has a pH of 6.0 to 6.8 and an organic matter content of about 30 percent, in plastic plug trays. Seedlings at the second or third leaf stage of growth were transplanted into 860 mL of mud contained in 32-oz. non-perforated plastic pots with a surface area of 86.59 cm^2 4 days prior to herbicide application. The paddy was created by filling the headspace of the pots with 2.5 to 3 cm of water. When required to ensure good germination and healthy plants, a fungicide treatment and/or other chemical or physical treatment was applied. The plants were grown for 4-22 days in a greenhouse with an approximate 14 h photoperiod which was maintained at about 29′C during the day and 26° C. during the night. Nutrients were added as Osmocote® (19:6:12, N:P:K+minor nutrients) at 2 g per 16-oz. pot and 4 g per 32-oz. pot. Water was added on a regular basis to maintain the paddy flood, and supplemental lighting was provided with overhead metal halide 1000-Watt lamps as necessary. The plants were employed for testing when they reached the first through fourth true leaf stage.
(§8) Treatments consisted of the acid or esters of 4-amino-3-chloro-5-fluoro-6-(4-chloro-2-fluoro-3-methoxy-phenyl)pyridine-2-carboxylic acid (compound A) each formulated as an SC and various herbicidal components alone and in combination. Forms of compound A were applied on an acid equivalent basis.
(§9) Other herbicidal components were applied on an active ingredient basis and included acetolactate synthase (ALS)-inhibiting herbicides (sulfonylurea chemical class), azimsulfuron formulated as Gulliver®, bensulfuron-methyl formulated as Londax® 60DF, cyclosulfamuron (technical grade materail), ethoxysulfuron formulated as Sunrice® 15 WDG, flucetosulfuron formulated as Sukedachi® 1KG G, imazosulfuron formulated as Brazzos®, metsulfuron-methyl formulated as Lorate®, nicosulfuron formulated as Accent®, orthosulfamuron formulated as Strada® WG, propyrisulfuron formulated as Zeta One®, and rimsulfuron formulated as Matrix® WG.
(§10) Treatment requirements for each compound or herbicidal component were calculated based upon the rates being tested, the concentration of active ingredient or acid equivalent in the formulation, an application volume of 2 mL per component per pot, and an application area of 86.59 cm^2 per pot.
(§11) For formulated compounds, a measured amount was placed in an individual 100 or 200 mL glass vial and was dissolved in a volume of 1.25% (v/v) Agri-Dex® crop oil concentrate to obtain application solutions.
(§12) For technical grade compounds, a weighed amount was placed in an individual 100 to 200 mL glass vial and was dissolved in a volume of acetone to obtain concentrated stock solutions. […] The concentrated stock solutions obtained were diluted with an equivalent volume of an aqueous mixture containing 2.5% (v/v) crop oil concentrate so that the final application solutions contained 1.25% (v/v) crop oil concentrate.
(§13) Applications were made by injecting with a pipetter appropriate amounts of the application solutions, individually and sequentially, into the aqueous layer of the paddy. Control plants were treated in the same manner with the solvent blank. Applications were made so that all treated plant material received the same concentrations of acetone and crop oil concentrate. […]

[4] = system: BRAPP (Brachiaria platyphylla, broadleaf signalgrass); assay: Postemergence foliar-applied weed control, direct seeded rice, greenhouse (Example I); type: in vivo, Brachiaria platyphylla (Griseb.) Nash; settings: Urochloa platyphylla, post-emergence, 528 h, 22 DAA, read-out: Visual Weed Control (%) Obs
Source text: (§14) Seeds or nutlets of the desired test plant species were planted in a soil matrix prepared by mixing a loam or sandy loam soil (e.g., 28.6 percent silt, 18.8 percent clay, and 52.6 percent sand, with a pH of about 5.8 and an organic matter content of about 1.8 percent) and calcareous grit in an 80 to 20 ratio. The soil matrix was contained in plastic pots with a volume of 1 quart and a surface area of 83.6 square centimeters (cm^2). When required to ensure good germination and healthy plants, a fungicide treatment and/or other chemical or physical treatment was applied. The plants were grown for 8-22 days in a greenhouse with an approximate 14 h photoperiod which was maintained at about 29° C. during the day and 26° C. during the night. Nutrients (Peters Excel® 15-5-15 5-Ca 2-Mg and iron chelate) were applied in the irrigation solution as needed and water was added on a regular basis. Supplemental lighting was provided with overhead metal halide 1000-Watt lamps as necessary. The plants were employed for testing when they reached the first through fourth true leaf stage.
(§15) Treatments consisted of the acid or esters of 4-amino-3-chloro-5-fluoro-6-(4-chloro-2-fluoro-3-methoxy-phenyl)pyridine-2-carboxylic acid (Compound A), each formulated as an SC, and various herbicidal components alone and in combination. Forms of compound A were applied on an acid equivalent basis.
(§16) Other herbicidal components were applied on an active ingredient basis and included acetolactate synthase (ALS)-inhibiting herbicides (sulfonylurea chemical class) azimsulfuron formulated as Gulliver®, bensulfuron-methyl formulated as Londax® 60DF, cyclosulfamuron (technical material), ethoxysulfuron formulated as Sunrice® 15 WDG, flazasulfuron formulated as Katana®, flucetosulfuron formulated as Sukedachi® 1KG G, foramsulfuron formulated as Option®, imazosulfuron formulated as Brazzos® WG, iodosulfuron-methyl-sodium formulated as Hussar®, metsulfuron-methyl formulated as Lorate®, nicosulfuron formulated as Accent®, orthosulfamuron formulated as Strada® WG, primisulfuron-methyl (technical material), propyrisulfuron formulated as Zeta One®, rimsulfuron formulated as Matrix® WG, sulfometuron-methyl formulated as Oust®, and trifloxysulfuron-sodium formulated as Monument® 75WG.
(§17) Treatment requirements were calculated based upon the rates being tested, the concentration of active ingredient or acid equivalent in the formulation, and a 12 mL application volume at a rate of 187 L/ha.
(§18) For treatments comprised of formulated compounds, measured amounts of compounds were placed individually in 25 mL glass vials and diluted in a volume of 1.25% (v/v) Agri-Dex® crop oil concentrated to obtain 12× stock solutions. […] Application solutions were prepared by adding an appropriate amount of each stock solution (e.g., 1 mL) and diluted to the appropriate final concentrations with the addition of 10 mL of an aqueous mixture of 1.25% (v/v) crop oil concentrate so that the final spray solutions contained 1.25+/−0.05% (v/v) Agrcrop oil concentrate.
(§19) For treatments comprised of formulated and technical compounds, weighed amounts of the technical materials were placed individually in 25 mL glass vials and dissolved in a volume of 97:3 v/v acetone/DMSO to obtain 12× stock solutions, and measured amounts of the formulated compounds were placed individually in 25 mL glass vials and diluted in a volume of 1.25% (v/v) crop oil concentrate to obtain 12× stock solutions. […] Application solutions were prepared by adding an appropriate amount of each stock solution (e.g., 1 mL) and diluted to the appropriate final concentrations with the addition of an appropriate amount of an aqueous mixture of 1.5% (v/v) crop oil concentrate so that the final spray solutions contained 1.25% (v/v) crop oil concentrate. […]

[5] = system: ECHOR (Echinochloa oryzoides, early watergrass); assay: In-water applied weed control, transplanted paddy rice, greenhouse (Example II); type: in vivo, Echinochloa oryzoides (Ard.) Fritsch
Description: as §7, §8, §9, §10, §11, §12, §13

[6] = system: ISCRU (Ischaemum rugosum, saramollagrass); assay: Postemergence foliar-applied weed control, direct seeded rice, greenhouse (Example I); type: in vivo, Ischaemum rugosum Salisb.; settings: 21 DAA
Source text: as §14, §15, §16, §17, §18, §19

[7] = system: CYPIR (Cyperus iria, rice flatsedge); assay: as above; type: in vivo, Cyperus iria L.; settings: 22 DAA
Source text: as §14, §15, §16, §17, §18, §19

[8] = system: VERPE (Veronica persica, bird's-eye speedwell); assay: Post-emergence foliar-applied weed control in cereal crops, greenhouse (Example III); type: in vivo, Veronica persica Poir.
Description: as §1, §2, §3, §4, §5, §6

[9] = Table 55, after 20-22 days, 3 gai/ha alone

COC(=O)c1ccccc1S(=O)(=O)NC(=O)N(C)c1nc(C)nc(OC)n1 [Tribenuron-methyl]
Weed Control MATCH Obs ([1]; Table 59 (cereal), after 20-22 days, 2.2 gai/ha alone): 90%
pest or weed control at 2.2 g/ha ([2]; Cirsium arvense, post-emergence, Table 59 (cereal), 2.2 gai/ha alone, read-out: Weed Control CIRAR Obs): 50%

CCOc1ccccc1OS(=O)(=O)NC(=O)Nc1nc(OC)cc(OC)n1 [Ethoxysulfuron, 2-ethoxyphenyl[[(4,6-dimethoxy-2-pyrimidinyl)amino]carbonyl]sulfamate, reference compound]
Visual Weed Control (%) - 22 DAA LEFCH Obs ([3]; Table 34, 15 gai/ha alone): 0%
Visual Weed Control (%) - 22 DAA LEFCH Obs ([3]; Table 35, 7.5 gai/ha alone): 0%
Visual Weed Control (%) - 22 DAA LEFCH Obs ([3]; Table 35, 15 gai/ha alone): 0%
pest or weed control at 7.5 g/ha ([4]; 7.5 gai/ha): 0%
pest or weed control at 15 g/ha ([4]; 15 gai/ha): 0%
pest or weed control at 30 g/ha ([4]; 30 gai/ha): 0%
Visual Weed Control (%) - 22 DAA ECHOR Obs ([5]; Table 34, 7.5 gai/ha alone): 10%
Visual Weed Control (%) - 22 DAA ECHOR Obs ([5]; Table 35, 7.5 gai/ha alone): 10%
Visual Weed Control (%) - 22 DAA ECHOR Obs ([5]; Table 35, 15 gai/ha alone): 20%
Visual Weed Control (%) Obs ([6]; 17.5 gai/ha): 0%
Visual Weed Control (%) Obs ([6]; 70 gai/ha): 0%
Visual Weed Control (%) Obs ([7]; 7.5 gai/ha): 50%
Visual Weed Control (%) Obs ([7]; 15 gai/ha): 50%
Visual Weed Control (%) Obs ([7]; 30 gai/ha): 85%

COC(=O)c1ccc(C(F)(F)F)nc1S(=O)(=O)NC(=O)Nc1nc(OC)cc(OC)n1 [Flupyrsulfuron-methyl sodium]
Weed Control VERPE Obs ([8]; Table 53, after 20-22 days, 5 gai/ha alone): 0%
pest or weed control at 5 g/ha ([2]; Cirsium arvense, post-emergence, Table 53, 5 gai/ha alone, read-out: Weed Control CIRAR Obs): 75%

COC(=O)c1ccc(CNS(C)(=O)=O)cc1S(=O)(=O)NC(=O)Nc1nc(OC)cc(OC)n1 [Mesosulfuron-methyl]
Weed Control MATCH Obs [1, 9]: 40%
Weed Control VERPE Obs [8, 9]: 5%
Weed Control CIRAR Obs ([2]; Table 55, 3 gai/ha alone): 78%
